Test results reported in US20210214758A1, “METHODS AND TOOLS FOR DETERMINING CLONAL RELATEDNESS AND PREDICTING CLONAL TRAITS” (priority 2018, published 2021).

System: Klebsiella isolates
Experiment: Antibiotic susceptibility of Klebsiella clinical isolates per 7-SNP clonotype (Lookup Table 1; disk diffusion)
Format: cell-based, Klebsiella spp.
Protocol: In further embodiments, the Lookup Table is Lookup Table 1. The information contained in Lookup Table 1 below was obtained from urine specimens from patients with Klebsiella infections from several clinics within different regions of the United States. CT=clonotypes determined using a 7-SNP combination: phoE54; rpoB130; infB279; mdh315; phoE336; phoE354; and mdh429.
Next, antibiotic resistance was determined for all 387 Klebsiella isolates in the discovery set. Antibiotic testing was carried out according to the standard disk diffusion method as described in the Clinical and Laboratory Standards Institute (M100 Performance Standards for Antimicrobial Susceptibility Testing, 27th Edition, 2017). […] Since almost all Klebsiella isolates are known to be resistant to AMP and sensitive to IMI, TET is not used for treatment of urinary tract infections, and ESBL production is partially reflected in resistance to CTR, these antibiotics were not included for further analysis.
To aid in clinical decision-making and to translate clonotype information to treatment selection, Lookup Table 1 was generated. […] The information contained in Lookup Table 1 was obtained from urine specimens from patients with Klebsiella infections from several clinics within different regions of the United States. Indications of allowance or non-recommendation were determined based on a 20% resistance threshold to the indicated antibiotic; i.e., the antibiotic is recommended when more than 80% of the tested isolates within the indicated clonotype were susceptible to the indicated antibiotic, and was cautioned against when less than 80% of the isolates were susceptible to the antibiotic.

SMILES: CN(C)[C@@H]1C(O)=C(C(N)=O)C(=O)[C@@]2(O)C(O)=C3C(=O)c4c(O)cccc4[C@@](C)(O)[C@H]3C[C@@H]12 [TET, tetracycline]
- susceptibility, % (CT 000): 93%
- susceptibility, % (CT 001): 0%
- susceptibility, % (CT 010): 67%
- susceptibility, % (CT 011): 73%
- susceptibility, % (CT 031): 67%
- susceptibility, % (CT 040): 50%
- susceptibility, % (CT 050): 76%
- susceptibility, % (CT 051): 85%
- susceptibility, % (CT 071): 80%
- susceptibility, % (CT 100): 100%
- susceptibility, % (CT 110): 100%
- susceptibility, % (CT 111): 90%
- susceptibility, % (CT 130): 88%
- susceptibility, % (CT 131): 52%
- susceptibility, % (CT 141): 100%
- susceptibility, % (CT 150): 80%
- susceptibility, % (CT 151): 75%
- susceptibility, % (CT 160): 100%
- susceptibility, % (CT 170): 91%
- susceptibility, % (CT 171): 81%
- susceptibility, % (CT 200): 83%
- susceptibility, % (CT 201): 83%
- susceptibility, % (CT 210): 76%
- susceptibility, % (CT 211): 88%
- susceptibility, % (CT 230): 0%
- susceptibility, % (CT 231): 100%
- susceptibility, % (CT 240): 100%
- susceptibility, % (CT 241): 100%
- susceptibility, % (CT 250): 85%
- susceptibility, % (CT 251): 83%
- susceptibility, % (CT 271): 79%
- susceptibility, % (CT 300): 0%
- susceptibility, % (CT 301): 88%
- susceptibility, % (CT 310): 93%
- susceptibility, % (CT 311): 80%
- susceptibility, % (CT 330): 80%
- susceptibility, % (CT 331): 75%
- susceptibility, % (CT 350): 83%
- susceptibility, % (CT 351): 86%
- susceptibility, % (CT 370): 75%
- susceptibility, % (CT 371): 100%
- susceptibility, % (CT 411): 100%
- susceptibility, % (CT 450): 83%
- susceptibility, % (CT 451): 100%
- susceptibility, % (CT 510): 100%
- susceptibility, % (CT 511): 100%
- susceptibility, % (CT 530): 75%
- susceptibility, % (CT 531): 100%
- susceptibility, % (CT 550): 75%
- susceptibility, % (CT 551): 93%
- susceptibility, % (CT 570): 75%
- susceptibility, % (CT 571): 100%
- susceptibility, % (CT 611): 67%
- susceptibility, % (CT 630): 100%
- susceptibility, % (CT 650): 83%
- susceptibility, % (CT 651): 92%
- susceptibility, % (CT 670): 100%
- susceptibility, % (CT 710): 67%
- susceptibility, % (CT 730): 79%
- susceptibility, % (CT 731): 85%
- susceptibility, % (CT 750): 95%
- susceptibility, % (CT 751): 100%
- susceptibility, % (CT 771): 100%
- susceptibility, % (CT Any Klebsiella spp.): 82%

SMILES: C[C@@H]1O[C@@H]1P(=O)(O)O [FOS, fosfomycin]
- susceptibility, % (CT 000): 63%
- susceptibility, % (CT 001): 0%
- susceptibility, % (CT 010): 33%
- susceptibility, % (CT 011): 9%
- susceptibility, % (CT 031): 33%
- susceptibility, % (CT 040): 25%
- susceptibility, % (CT 050): 29%
- susceptibility, % (CT 051): 41%
- susceptibility, % (CT 071): 80%
- susceptibility, % (CT 100): 71%
- susceptibility, % (CT 110): 0%
- susceptibility, % (CT 111): 30%
- susceptibility, % (CT 130): 29%
- susceptibility, % (CT 131): 36%
- susceptibility, % (CT 141): 0%
- susceptibility, % (CT 150): 42%
- susceptibility, % (CT 151): 43%
- susceptibility, % (CT 160): 0%
- susceptibility, % (CT 170): 39%
- susceptibility, % (CT 171): 22%
- susceptibility, % (CT 200): 43%
- susceptibility, % (CT 201): 26%
- susceptibility, % (CT 210): 45%
- susceptibility, % (CT 211): 43%
- susceptibility, % (CT 230): 100%
- susceptibility, % (CT 231): 100%
- susceptibility, % (CT 240): 100%
- susceptibility, % (CT 241): 0%
- susceptibility, % (CT 250): 55%
- susceptibility, % (CT 251): 40%
- susceptibility, % (CT 271): 38%
- susceptibility, % (CT 300): 0%
- susceptibility, % (CT 301): 24%
- susceptibility, % (CT 310): 33%
- susceptibility, % (CT 311): 35%
- susceptibility, % (CT 330): 40%
- susceptibility, % (CT 331): 32%
- susceptibility, % (CT 350): 44%
- susceptibility, % (CT 351): 35%
- susceptibility, % (CT 370): 25%
- susceptibility, % (CT 371): 50%
- susceptibility, % (CT 411): 50%
- susceptibility, % (CT 450): 33%
- susceptibility, % (CT 451): 33%
- susceptibility, % (CT 510): 50%
- susceptibility, % (CT 511): 100%
- susceptibility, % (CT 530): 14%
- susceptibility, % (CT 531): 33%
- susceptibility, % (CT 550): 33%
- susceptibility, % (CT 551): 36%
- susceptibility, % (CT 570): 50%
- susceptibility, % (CT 571): 25%
- susceptibility, % (CT 611): 33%
- susceptibility, % (CT 630): 0%
- susceptibility, % (CT 650): 37%
- susceptibility, % (CT 651): 24%
- susceptibility, % (CT 670): 0%
- susceptibility, % (CT 710): 33%
- susceptibility, % (CT 730): 21%
- susceptibility, % (CT 731): 43%
- susceptibility, % (CT 750): 60%
- susceptibility, % (CT 751): 17%
- susceptibility, % (CT 771): 36%
- susceptibility, % (CT Any Klebsiella spp.): 41%

SMILES: C[C@@H](O)[C@H]1C(=O)N2C(C(=O)O)=C(SCCN=CN)C[C@H]12 [IMI, imipenem]
- susceptibility, % (CT 000): 100%
- susceptibility, % (CT 001): 100%
- susceptibility, % (CT 010): 100%
- susceptibility, % (CT 011): 100%
- susceptibility, % (CT 031): 67%
- susceptibility, % (CT 040): 75%
- susceptibility, % (CT 050): 100%
- susceptibility, % (CT 051): 100%
- susceptibility, % (CT 071): 100%
- susceptibility, % (CT 100): 100%
- susceptibility, % (CT 110): 100%
- susceptibility, % (CT 111): 100%
- susceptibility, % (CT 130): 100%
- susceptibility, % (CT 131): 98%
- susceptibility, % (CT 141): 100%
- susceptibility, % (CT 150): 99%
- susceptibility, % (CT 151): 100%
- susceptibility, % (CT 160): 100%
- susceptibility, % (CT 170): 96%
- susceptibility, % (CT 171): 97%
- susceptibility, % (CT 200): 100%
- susceptibility, % (CT 201): 100%
- susceptibility, % (CT 210): 100%
- susceptibility, % (CT 211): 100%
- susceptibility, % (CT 230): 100%
- susceptibility, % (CT 231): 100%
- susceptibility, % (CT 240): 100%
- susceptibility, % (CT 241): 100%
- susceptibility, % (CT 250): 100%
- susceptibility, % (CT 251): 100%
- susceptibility, % (CT 271): 100%
- susceptibility, % (CT 300): 100%
- susceptibility, % (CT 301): 100%
- susceptibility, % (CT 310): 100%
- susceptibility, % (CT 311): 100%
- susceptibility, % (CT 330): 100%
- susceptibility, % (CT 331): 100%
- susceptibility, % (CT 350): 100%
- susceptibility, % (CT 351): 100%
- susceptibility, % (CT 370): 100%
- susceptibility, % (CT 371): 100%
- susceptibility, % (CT 411): 100%
- susceptibility, % (CT 450): 100%
- susceptibility, % (CT 451): 100%
- susceptibility, % (CT 510): 100%
- susceptibility, % (CT 511): 100%
- susceptibility, % (CT 530): 100%
- susceptibility, % (CT 531): 100%
- susceptibility, % (CT 550): 98%
- susceptibility, % (CT 551): 75%
- susceptibility, % (CT 570): 100%
- susceptibility, % (CT 571): 100%
- susceptibility, % (CT 611): 100%
- susceptibility, % (CT 630): 100%
- susceptibility, % (CT 650): 100%
- susceptibility, % (CT 651): 100%
- susceptibility, % (CT 670): 100%
- susceptibility, % (CT 710): 100%
- susceptibility, % (CT 730): 98%
- susceptibility, % (CT 731): 100%
- susceptibility, % (CT 750): 100%
- susceptibility, % (CT 751): 100%
- susceptibility, % (CT 771): 100%
- susceptibility, % (CT Any Klebsiella spp.): 99%
